Data: ChEMBL document CHEMBL5465560, “Selectivity Literature for EUbOPEN Chemogenomic Library” (2024)

How the values were obtained:
[1] = target: Mitogen-activated protein kinase 4 (Homo sapiens) (UniProt P31152); assay: Selectivity interaction (KinomeScan (DiscoverX)) EUB0000607a MAPK4; settings: at 10 µM
[2] = target: Mitogen-activated protein kinase 9 (Homo sapiens, UniProt P45984); assay: Selectivity interaction (SelectScreen profiling (Invitrogen)) EUB0000607a MAPK9; settings: at 2 µM
[3] = target: T1, Serine/threonine-protein kinase PLK4 (Homo sapiens) (UniProt O00444); assay: Selectivity interaction (Kinase panel (DSF assay)) EUB0001489b PLK4
T1 sequence (whole entry): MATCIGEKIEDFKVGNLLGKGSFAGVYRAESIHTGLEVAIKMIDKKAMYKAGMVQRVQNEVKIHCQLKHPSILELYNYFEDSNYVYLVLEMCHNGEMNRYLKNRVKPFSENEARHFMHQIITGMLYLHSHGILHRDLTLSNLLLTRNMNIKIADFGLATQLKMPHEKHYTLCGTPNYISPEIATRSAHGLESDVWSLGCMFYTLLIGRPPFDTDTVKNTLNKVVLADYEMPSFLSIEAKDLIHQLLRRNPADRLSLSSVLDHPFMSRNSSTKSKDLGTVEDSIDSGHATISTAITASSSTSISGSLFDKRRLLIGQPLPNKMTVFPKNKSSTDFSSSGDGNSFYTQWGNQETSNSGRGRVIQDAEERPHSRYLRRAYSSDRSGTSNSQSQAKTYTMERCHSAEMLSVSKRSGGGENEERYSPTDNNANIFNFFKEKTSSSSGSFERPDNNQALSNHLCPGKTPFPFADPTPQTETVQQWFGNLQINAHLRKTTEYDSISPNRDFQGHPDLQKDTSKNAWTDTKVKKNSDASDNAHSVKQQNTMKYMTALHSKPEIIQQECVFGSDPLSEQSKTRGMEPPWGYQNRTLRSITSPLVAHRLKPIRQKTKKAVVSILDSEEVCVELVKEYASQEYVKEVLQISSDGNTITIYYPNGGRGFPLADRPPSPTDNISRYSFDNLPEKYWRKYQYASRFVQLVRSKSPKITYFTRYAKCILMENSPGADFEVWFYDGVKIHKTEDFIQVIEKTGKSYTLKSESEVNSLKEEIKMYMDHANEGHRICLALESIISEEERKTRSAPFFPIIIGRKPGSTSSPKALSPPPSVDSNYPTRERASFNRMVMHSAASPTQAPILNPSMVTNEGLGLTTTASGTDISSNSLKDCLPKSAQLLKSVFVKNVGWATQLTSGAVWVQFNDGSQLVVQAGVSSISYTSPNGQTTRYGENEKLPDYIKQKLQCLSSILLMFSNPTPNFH

[4] = target: Wee1-like protein kinase 2 (Homo sapiens) (UniProt P0C1S8); assay: Selectivity interaction (KinomeScan (DiscoverX)) EUB0000695a WEE2; settings: at 100 nM
[5] = target: T2, MAP kinase-activated protein kinase 5 (Homo sapiens) (UniProt Q8IW41); assay: Selectivity interaction (KinomeScan (DiscoverX)) EUB0001049a MAPKAPK5; settings: at 1 µM
T2 sequence (whole entry): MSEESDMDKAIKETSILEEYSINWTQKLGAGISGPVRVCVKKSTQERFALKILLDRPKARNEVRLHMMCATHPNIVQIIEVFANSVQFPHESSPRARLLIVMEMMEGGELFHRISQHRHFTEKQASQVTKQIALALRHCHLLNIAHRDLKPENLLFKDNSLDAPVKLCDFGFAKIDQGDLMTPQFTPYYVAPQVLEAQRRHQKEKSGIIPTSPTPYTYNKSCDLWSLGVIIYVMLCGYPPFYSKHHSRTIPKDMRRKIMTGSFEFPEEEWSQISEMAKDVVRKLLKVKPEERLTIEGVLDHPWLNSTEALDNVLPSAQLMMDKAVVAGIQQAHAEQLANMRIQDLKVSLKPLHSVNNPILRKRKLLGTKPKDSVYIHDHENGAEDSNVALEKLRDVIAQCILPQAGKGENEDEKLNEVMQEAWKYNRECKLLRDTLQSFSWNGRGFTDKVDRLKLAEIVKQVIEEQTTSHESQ

Insulin receptor = Insulin receptor (Homo sapiens, UniProt P06213); assay: Selectivity interaction (Millipore kinase profiler) EUB0000124b INSR; settings: at 10 µM
[6] = target: T3, Serine/threonine-protein kinase TBK1 (Homo sapiens) (UniProt Q9UHD2); assay: Selectivity interaction (Ambit KINOMEscan and KiNATiv profiling in Jurkat cells) EUB0000090b TBK1; assay type: cell-based; settings: at 1 µM
T3 sequence (whole entry): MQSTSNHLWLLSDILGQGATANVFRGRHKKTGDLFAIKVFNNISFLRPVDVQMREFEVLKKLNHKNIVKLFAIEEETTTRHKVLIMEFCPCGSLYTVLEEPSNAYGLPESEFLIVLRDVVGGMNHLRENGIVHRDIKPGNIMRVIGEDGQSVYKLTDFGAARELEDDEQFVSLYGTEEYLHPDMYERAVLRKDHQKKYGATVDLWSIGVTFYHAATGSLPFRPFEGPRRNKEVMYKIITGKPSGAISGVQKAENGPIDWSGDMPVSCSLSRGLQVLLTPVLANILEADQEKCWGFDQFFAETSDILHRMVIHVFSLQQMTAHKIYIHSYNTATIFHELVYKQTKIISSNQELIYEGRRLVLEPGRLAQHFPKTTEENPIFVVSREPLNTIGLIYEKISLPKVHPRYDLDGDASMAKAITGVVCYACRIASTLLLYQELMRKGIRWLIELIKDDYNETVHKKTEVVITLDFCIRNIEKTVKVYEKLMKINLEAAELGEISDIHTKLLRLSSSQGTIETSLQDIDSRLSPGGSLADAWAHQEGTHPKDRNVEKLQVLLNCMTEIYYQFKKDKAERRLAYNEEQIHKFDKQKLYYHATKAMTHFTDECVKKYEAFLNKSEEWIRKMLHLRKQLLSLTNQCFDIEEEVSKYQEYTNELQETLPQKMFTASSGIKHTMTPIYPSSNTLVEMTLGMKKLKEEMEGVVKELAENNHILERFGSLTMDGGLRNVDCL

[7] = target: Serine/threonine-protein kinase SIK3 (Homo sapiens) (UniProt Q9Y2K2); assay: Selectivity interaction (KinomeScan (DiscoverX)) EUB0001079a SIK3; settings: at 1 µM
[8] = target: T4, Testis-specific serine/threonine-protein kinase 1 (Homo sapiens) (UniProt Q9BXA7); assay: Selectivity interaction (KinomeScan (DiscoverX)) EUB0000092b TSSK1A; settings: at 10 µM
T4 sequence (whole entry): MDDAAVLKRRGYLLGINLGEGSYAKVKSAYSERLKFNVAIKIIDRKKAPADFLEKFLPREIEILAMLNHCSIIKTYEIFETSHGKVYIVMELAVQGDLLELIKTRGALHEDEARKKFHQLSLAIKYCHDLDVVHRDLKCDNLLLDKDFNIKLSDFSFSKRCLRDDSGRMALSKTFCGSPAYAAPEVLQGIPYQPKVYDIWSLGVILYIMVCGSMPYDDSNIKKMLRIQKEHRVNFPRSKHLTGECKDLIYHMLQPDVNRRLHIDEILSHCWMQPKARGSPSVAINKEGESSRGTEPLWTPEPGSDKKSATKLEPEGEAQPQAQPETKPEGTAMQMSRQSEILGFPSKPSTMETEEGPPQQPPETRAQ

Insulin receptor, sequence (P06213 28-758 limits assumed): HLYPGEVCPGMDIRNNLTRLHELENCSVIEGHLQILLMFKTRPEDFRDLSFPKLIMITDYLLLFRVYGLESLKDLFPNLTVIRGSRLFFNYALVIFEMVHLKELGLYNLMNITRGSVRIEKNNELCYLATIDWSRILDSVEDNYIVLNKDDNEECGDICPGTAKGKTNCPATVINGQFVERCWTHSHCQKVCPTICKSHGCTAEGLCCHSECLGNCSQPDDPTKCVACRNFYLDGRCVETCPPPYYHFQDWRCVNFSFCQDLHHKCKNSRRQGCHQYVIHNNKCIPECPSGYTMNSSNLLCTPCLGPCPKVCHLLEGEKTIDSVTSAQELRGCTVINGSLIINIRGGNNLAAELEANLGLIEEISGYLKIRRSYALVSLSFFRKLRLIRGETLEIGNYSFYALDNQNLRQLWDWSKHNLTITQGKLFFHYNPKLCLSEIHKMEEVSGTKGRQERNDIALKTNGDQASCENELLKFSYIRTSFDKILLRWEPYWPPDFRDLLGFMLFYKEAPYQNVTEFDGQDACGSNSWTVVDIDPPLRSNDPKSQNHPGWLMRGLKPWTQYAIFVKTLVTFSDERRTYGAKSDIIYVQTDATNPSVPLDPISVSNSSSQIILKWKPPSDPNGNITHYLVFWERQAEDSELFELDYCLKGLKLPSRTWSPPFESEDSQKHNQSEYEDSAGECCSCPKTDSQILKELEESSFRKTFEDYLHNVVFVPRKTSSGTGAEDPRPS
Insulin receptor, sequence (P06213 763-1382 limits assumed): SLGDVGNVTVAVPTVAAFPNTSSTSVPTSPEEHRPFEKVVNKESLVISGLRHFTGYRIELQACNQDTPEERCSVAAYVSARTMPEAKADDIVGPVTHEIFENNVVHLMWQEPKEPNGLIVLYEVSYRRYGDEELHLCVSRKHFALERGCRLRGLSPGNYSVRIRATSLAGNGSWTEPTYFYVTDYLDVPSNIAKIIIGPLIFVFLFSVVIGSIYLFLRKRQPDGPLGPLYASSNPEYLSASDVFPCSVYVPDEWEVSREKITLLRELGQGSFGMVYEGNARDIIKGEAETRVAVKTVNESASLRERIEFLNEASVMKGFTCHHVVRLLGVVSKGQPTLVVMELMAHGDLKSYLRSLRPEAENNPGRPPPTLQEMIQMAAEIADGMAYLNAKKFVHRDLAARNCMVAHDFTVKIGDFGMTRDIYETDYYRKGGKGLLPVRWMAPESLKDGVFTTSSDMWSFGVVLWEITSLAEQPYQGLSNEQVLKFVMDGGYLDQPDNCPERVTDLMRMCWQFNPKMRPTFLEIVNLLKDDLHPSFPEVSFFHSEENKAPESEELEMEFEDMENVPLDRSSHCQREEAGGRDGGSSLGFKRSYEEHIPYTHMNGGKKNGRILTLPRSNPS
Serine/threonine-protein kinase SIK3 (Homo sapiens), sequence (Q9Y2K2 whole entry, looked up): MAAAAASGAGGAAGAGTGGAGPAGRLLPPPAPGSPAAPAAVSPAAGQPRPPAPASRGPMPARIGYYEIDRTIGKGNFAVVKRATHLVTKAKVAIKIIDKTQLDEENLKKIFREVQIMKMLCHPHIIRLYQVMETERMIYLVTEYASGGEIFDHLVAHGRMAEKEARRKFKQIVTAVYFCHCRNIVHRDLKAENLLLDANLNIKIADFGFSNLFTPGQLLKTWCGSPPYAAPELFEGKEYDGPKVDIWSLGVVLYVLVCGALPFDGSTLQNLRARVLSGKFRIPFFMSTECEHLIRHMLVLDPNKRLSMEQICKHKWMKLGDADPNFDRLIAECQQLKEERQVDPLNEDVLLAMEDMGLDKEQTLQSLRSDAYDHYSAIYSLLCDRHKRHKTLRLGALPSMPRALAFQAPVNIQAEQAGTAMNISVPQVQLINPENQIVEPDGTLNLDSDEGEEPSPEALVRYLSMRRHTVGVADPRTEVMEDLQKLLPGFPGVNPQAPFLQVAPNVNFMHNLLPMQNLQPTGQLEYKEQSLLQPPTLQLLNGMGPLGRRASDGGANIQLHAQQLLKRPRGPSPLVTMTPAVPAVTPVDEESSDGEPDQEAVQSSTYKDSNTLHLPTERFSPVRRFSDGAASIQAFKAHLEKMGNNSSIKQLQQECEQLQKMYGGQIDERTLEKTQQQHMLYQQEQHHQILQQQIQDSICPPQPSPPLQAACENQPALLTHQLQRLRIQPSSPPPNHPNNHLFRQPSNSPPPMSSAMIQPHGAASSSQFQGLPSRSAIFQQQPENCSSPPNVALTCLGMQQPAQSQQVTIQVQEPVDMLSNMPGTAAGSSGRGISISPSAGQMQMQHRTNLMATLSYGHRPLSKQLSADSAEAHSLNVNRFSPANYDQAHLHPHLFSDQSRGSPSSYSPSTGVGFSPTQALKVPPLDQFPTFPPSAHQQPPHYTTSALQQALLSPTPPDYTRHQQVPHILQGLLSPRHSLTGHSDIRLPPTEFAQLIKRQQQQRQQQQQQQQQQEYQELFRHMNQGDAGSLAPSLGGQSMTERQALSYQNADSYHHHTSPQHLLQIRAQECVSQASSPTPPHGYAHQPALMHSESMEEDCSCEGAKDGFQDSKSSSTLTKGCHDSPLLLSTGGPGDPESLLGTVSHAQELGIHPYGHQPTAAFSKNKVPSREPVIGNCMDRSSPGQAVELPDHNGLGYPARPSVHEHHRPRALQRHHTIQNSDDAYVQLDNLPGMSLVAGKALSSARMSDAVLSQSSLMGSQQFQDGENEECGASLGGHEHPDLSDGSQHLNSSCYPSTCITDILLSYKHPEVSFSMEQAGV
Mitogen-activated protein kinase 4 (Homo sapiens), sequence (P31152 whole entry): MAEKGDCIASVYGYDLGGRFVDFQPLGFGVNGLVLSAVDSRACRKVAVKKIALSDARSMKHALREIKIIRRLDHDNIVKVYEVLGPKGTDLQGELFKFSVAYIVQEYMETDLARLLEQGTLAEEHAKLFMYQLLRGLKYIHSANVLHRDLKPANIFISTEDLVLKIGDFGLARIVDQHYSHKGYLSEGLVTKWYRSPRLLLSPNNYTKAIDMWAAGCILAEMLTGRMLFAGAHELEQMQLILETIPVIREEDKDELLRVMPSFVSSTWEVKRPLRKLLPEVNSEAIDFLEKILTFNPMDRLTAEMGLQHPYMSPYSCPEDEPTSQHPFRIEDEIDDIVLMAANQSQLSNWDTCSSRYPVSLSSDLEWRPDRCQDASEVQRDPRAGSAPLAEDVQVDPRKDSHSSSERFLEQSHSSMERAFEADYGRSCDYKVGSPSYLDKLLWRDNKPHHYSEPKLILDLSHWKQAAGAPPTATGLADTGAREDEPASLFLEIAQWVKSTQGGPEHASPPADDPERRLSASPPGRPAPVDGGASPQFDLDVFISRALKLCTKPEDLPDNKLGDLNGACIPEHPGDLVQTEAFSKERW
Mitogen-activated protein kinase 9, sequence (P45984 whole entry, looked up): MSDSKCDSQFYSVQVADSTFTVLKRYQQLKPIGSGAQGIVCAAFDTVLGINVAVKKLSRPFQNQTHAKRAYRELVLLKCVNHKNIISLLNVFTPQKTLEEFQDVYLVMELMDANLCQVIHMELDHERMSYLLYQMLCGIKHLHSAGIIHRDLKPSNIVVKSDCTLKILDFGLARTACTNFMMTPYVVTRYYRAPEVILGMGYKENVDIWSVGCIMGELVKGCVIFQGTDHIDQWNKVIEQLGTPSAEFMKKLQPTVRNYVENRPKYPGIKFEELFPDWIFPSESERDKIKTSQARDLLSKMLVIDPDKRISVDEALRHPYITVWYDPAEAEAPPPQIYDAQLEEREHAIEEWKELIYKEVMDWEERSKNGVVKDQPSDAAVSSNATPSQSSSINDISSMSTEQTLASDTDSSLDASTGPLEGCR
Wee1-like protein kinase 2 (Homo sapiens), sequence (P0C1S8 whole entry, looked up): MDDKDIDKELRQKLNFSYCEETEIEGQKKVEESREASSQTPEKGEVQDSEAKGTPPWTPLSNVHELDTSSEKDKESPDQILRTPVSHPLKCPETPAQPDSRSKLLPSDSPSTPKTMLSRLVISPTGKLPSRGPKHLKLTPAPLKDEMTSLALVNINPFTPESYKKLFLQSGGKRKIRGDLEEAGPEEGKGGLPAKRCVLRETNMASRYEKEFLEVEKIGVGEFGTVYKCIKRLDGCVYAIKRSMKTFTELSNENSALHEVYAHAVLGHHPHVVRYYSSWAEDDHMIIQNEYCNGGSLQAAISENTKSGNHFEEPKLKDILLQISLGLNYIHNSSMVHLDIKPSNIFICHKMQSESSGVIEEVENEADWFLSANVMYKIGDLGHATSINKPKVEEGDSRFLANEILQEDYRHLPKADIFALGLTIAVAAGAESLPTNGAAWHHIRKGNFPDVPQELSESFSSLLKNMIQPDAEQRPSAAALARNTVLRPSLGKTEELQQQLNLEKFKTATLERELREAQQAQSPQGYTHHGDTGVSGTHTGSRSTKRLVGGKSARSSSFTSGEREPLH

SMILES: CNC(=O)Nc1ccc(-c2nc(N3CC4CCC(C3)O4)c3cnn(C4CCC5(CC4)OCCO5)c3n2)cc1
- % of control [1]: 100%
- % of inhibition [2]: 11%

SMILES: CN1CCN(C(=O)c2ccc3cc2OCCOCCNc2ccn4ncc-3c4n2)CC1
- dTM [3]: 4 K

SMILES: Cc1cc(F)c(C(=O)Nc2cccc(-c3nncn3C(C)C)n2)cc1-n1cnc(C2CC2)c1
- % of control [4]: 100%

SMILES: COc1cc(Nc2nc(C)cc(-c3cnn4nc(OC)ccc34)n2)cc(C(F)(F)F)c1
- % of control [5]: 82%

SMILES: CC(=O)Nc1cccc(-n2c(=O)n(C3CC3)c(=O)c3c(Nc4ccc(I)cc4F)n(C)c(=O)c(C)c32)c1
- % of control (Insulin receptor): 129%

SMILES: CN(C)C/C=C/C(=O)Nc1ccc(C(=O)N2CCCC(Nc3ncc(Cl)c(-c4c[nH]c5ccccc45)n3)C2)cc1 (centres undefined)
- % of control [6]: 96%

SMILES: Nc1cnc(N2CCc3cc(S(=O)(=O)Nc4c(F)cc(Cl)cc4F)cc(N4CCCC4=O)c32)nc1 [TP-020n]
- % of control [7]: 83%

SMILES: CCC(=O)N1CCN(c2ccc(-n3c(=O)ccc4cnc5ccc(-c6cnc7ccccc7c6)cc5c43)cc2C(F)(F)F)CC1
- % of control [8]: 100%
